The text below walks through data of PMC3387330 (Amino acids, 2012).

Molecules are shown by their SMILES.

A short description of this data set: Metabolic stability of parent peptide in rat hepatocytes. Particulars: male, Sprague-Dawley.

One may read the half-life as how long it takes for the measured level to halve. As for `CSCC[C@H](NC(=O)[C@H](CC(C)C)NC(=O)[C@H](Cc1c[nH]cn1)NC(=O)CNC(=O)[C@@H](NC(=O)[C@H](C)NC(=O)[C@H](Cc1c[nH]c2ccccc12)NC(=O)[C@H](CCC(N)=O)NC(=O)CCCCCNC(=O)C(C)F)C(C)C)C(N)=O` (some centres unmarked) [FP-BBN, FP-aca-QWAVGHLM-NH2], the half-life at 10 µM is about 25 min.

For the molecule `CSCC[C@H](NC(=O)[C@H](CC(C)C)NC(=O)[C@H](Cc1c[nH]cn1)NC(=O)CNC(=O)[C@@H](NC(=O)[C@H](C)NC(=O)[C@H](Cc1c[nH]c2ccccc12)NC(=O)[C@H](CCC(N)=O)NC(=O)CCCCCNC(=O)c1ccc(F)cc1)C(C)C)C(N)=O` [FB-BBN, FB-aca-QWAVGHLM-NH2], the half-life at 10 µM was about 3.8 min.
